Some test systems named below: CCRF-CEM leukemia; SF-268 CNS; OVCAR-4 ovarian; CAKI-1 renal; BT-549 breast; TK-10 renal; M14 melanoma; EKVX NSCLC.
Assay in all cases: inhibition of tumour cell growth, NCI panel, 48 h

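In this assay, cells in 96-well plates receive the compound at five concentrations for 48 hours. Endpoints are linearly interpolated between the surrounding concentrations. GI50: concentration for 50% inhibition of growth. TGI: concentration producing complete growth inhibition.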

Turning to `Nc1c(C(=O)c2ccc(CCCN3CCOCC3)cc2)cnn1-c1ccc(F)cc1`, the GI50 was > 25 µM in the test on CCRF-CEM leukemia; > 25 µM in the test with SF-268 CNS; > 19.1 µM in the test with OVCAR-4 ovarian; > 25 µM in the test with CAKI-1 renal; > 25 µM with BT-549 breast; > 25 µM in the test on TK-10 renal. Also, in the test on M14 melanoma, the GI50 was > 25 µM. The TGI with CCRF-CEM leukemia, in the test on SF-268 CNS, in the test with OVCAR-4 ovarian, with CAKI-1 renal, with BT-549 breast and in the test with TK-10 renal was > 25 µM each time. The TGI with M14 melanoma is > 25 µM.

In the case of `O=C1OC(c2ccccc2)(c2cc(Br)c(O)c(Br)c2)c2ccccc21` (centres undefined), the GI50 in the test with CCRF-CEM leukemia was 38.3 µM; in the test with SF-268 CNS, 28.8 µM; in the test on OVCAR-4 ovarian, 22.7 µM; in the test with EKVX NSCLC it was 31.7 µM; in the test on CAKI-1 renal it was 29.2 µM; in the test with M14 melanoma, 18.6 µM. The TGI in the test with CCRF-CEM leukemia is > 100 µM; in the test with SF-268 CNS it was > 100 µM; with OVCAR-4 ovarian it was 78.9 µM; with EKVX NSCLC, > 100 µM; with CAKI-1 renal, > 100 µM; with M14 melanoma, 36.8 µM.

Take `COc1cc(OC)c(NC(=O)c2cc3ccccc3cc2O)cc1Cl`: the GI50 in the test with SF-268 CNS is 3.66 µM; in the test on OVCAR-4 ovarian, 3 µM; in the test on EKVX NSCLC, 2.22 µM; in the test on CAKI-1 renal, 1.9 µM; in the test on BT-549 breast, 4.33 µM; in the test with TK-10 renal it was 3.15 µM. In addition, the GI50 in the test with M14 melanoma is 3.03 µM. Further, the TGI with SF-268 CNS is 33.4 µM; with OVCAR-4 ovarian, > 100 µM; in the test on EKVX NSCLC it was 28 µM; with CAKI-1 renal it was 6.68 µM; with BT-549 breast it was 66 µM; in the test with TK-10 renal it was 8.57 µM. Also, in the test on M14 melanoma, the TGI was found to be 13.1 µM.

As to `O=C(NCc1ccco1)c1ccc(NC2=C(Cl)C(=O)N(Cc3ccccc3)C2=O)cc1`, the GI50 is 17.8 µM in the test on SF-268 CNS; 51.3 µM in the test on OVCAR-4 ovarian; 31.2 µM in the test on EKVX NSCLC; 1.84 µM in the test with CAKI-1 renal; 17.9 µM in the test with BT-549 breast; 30.7 µM in the test on TK-10 renal. The GI50 in the test on M14 melanoma was 15.1 µM. Moreover, the TGI with SF-268 CNS is 54.1 µM; with OVCAR-4 ovarian, > 100 µM; in the test with EKVX NSCLC it was 72.5 µM; in the test on CAKI-1 renal it was 3.39 µM; in the test on BT-549 breast, 36.5 µM; with TK-10 renal, 76.7 µM. The compound further returned a TGI with M14 melanoma of 28.4 µM.

As for `Cc1ccc(-c2nc(N3CCCNCC3)c3oc(-c4ccccc4)nc3n2)cc1`, the GI50 in the test with CCRF-CEM leukemia is 1.31 µM; in the test with SF-268 CNS, 1.83 µM; in the test with OVCAR-4 ovarian, 1.82 µM; in the test on EKVX NSCLC, 1.81 µM; in the test with CAKI-1 renal, 1.65 µM; with TK-10 renal, 1.8 µM. The GI50 in the test with M14 melanoma was 1.76 µM. Further, the TGI in the test with CCRF-CEM leukemia was found to be 3.13 µM; in the test with SF-268 CNS, 3.66 µM; with OVCAR-4 ovarian, 3.55 µM; with EKVX NSCLC, 3.33 µM; with CAKI-1 renal it was 3.03 µM; with TK-10 renal, 3.2 µM. In the test on M14 melanoma, this compound came in with a TGI of 3.29 µM.

For the compound `C=C(CN1CCN(c2cccc(C(F)(F)F)n2)CC1)c1ccc(C(=S)Nc2ccccc2N)cc1`, the GI50 in the test with SF-268 CNS was 8.08 µM; in the test on OVCAR-4 ovarian it was 3.01 µM; in the test with EKVX NSCLC, 4.47 µM; in the test on CAKI-1 renal, 3.26 µM; in the test with BT-549 breast, 4.4 µM; in the test with TK-10 renal, 3.13 µM. Also, the GI50 in the test with M14 melanoma was 3.81 µM. The TGI in the test with SF-268 CNS, in the test on OVCAR-4 ovarian, in the test on EKVX NSCLC, in the test on CAKI-1 renal, in the test with BT-549 breast and in the test with TK-10 renal was > 100 µM each time. The TGI in the test on M14 melanoma is 41.3 µM.

`CCCCCCCCCCCCOC1C(C(CC(=O)N2CCN(c3cccc(C(F)(F)F)c3)CC2)NS(=O)(=O)c2cc(Cl)cc(Cl)c2)OC2OC(C)(C)OC21` (centres undefined): the GI50 in the test on SF-268 CNS, in the test on OVCAR-4 ovarian, in the test on EKVX NSCLC, in the test with CAKI-1 renal, in the test on BT-549 breast and in the test on TK-10 renal was > 100 µM in each case. For the same compound, the GI50 in the test on M14 melanoma is > 100 µM. The TGI in the test with SF-268 CNS, in the test with OVCAR-4 ovarian, in the test on EKVX NSCLC, in the test with CAKI-1 renal, with BT-549 breast and in the test with TK-10 renal was > 100 µM in each case. Further, the TGI in the test on M14 melanoma is > 100 µM.

As to `CCS(=O)(=O)Nc1cccc(Nc2c3cccc(C)c3nc3c(C)cccc23)c1OC`, the GI50 is 0.264 µM in the test with CCRF-CEM leukemia; 0.98 µM with SF-268 CNS; 9.78 µM in the test with OVCAR-4 ovarian; 0.347 µM with CAKI-1 renal; 2.54 µM in the test on BT-549 breast; 2.24 µM with TK-10 renal. Besides, the GI50 with M14 melanoma was 0.435 µM. The TGI was > 100 µM in the test on CCRF-CEM leukemia; > 56 µM in the test on SF-268 CNS; > 75.8 µM with OVCAR-4 ovarian; 15.8 µM in the test with CAKI-1 renal; 25.1 µM in the test on BT-549 breast; 11.5 µM in the test with TK-10 renal. For the same compound, in the test with M14 melanoma, the TGI is > 100 µM.

In the case of `O=C(CCC(C(=O)c1ccccc1)c1ccccc1)c1ccccc1` (centres undefined), the GI50 was 3.97 µM in the test on CCRF-CEM leukemia; 35.6 µM with SF-268 CNS; 16.5 µM in the test on OVCAR-4 ovarian; 5.7 µM in the test on CAKI-1 renal; 7.92 µM in the test with BT-549 breast; 38.6 µM in the test with TK-10 renal. Moreover, the GI50 with M14 melanoma was 6.82 µM. The TGI is 77.2 µM in the test on CCRF-CEM leukemia; > 100 µM with SF-268 CNS; > 100 µM in the test with OVCAR-4 ovarian; > 100 µM with CAKI-1 renal; 86.7 µM in the test with BT-549 breast; > 100 µM in the test on TK-10 renal. The TGI in the test with M14 melanoma is > 100 µM.

As to `CCOC(=O)/C(C#N)=C1/C(O)=C(C(=O)OC)C(C(=O)OC)=C1C(=O)OC`, the TGI with CCRF-CEM leukemia, in the test with SF-268 CNS, with OVCAR-4 ovarian, in the test on EKVX NSCLC, with CAKI-1 renal and with TK-10 renal was > 100 µM throughout. Moreover, the TGI in the test on M14 melanoma was > 100 µM.

`COc1ccc(-c2nc(N3CCN(C(=O)C4CCCCC4)CC3)c3c4c(sc3n2)CCCC4)cc1`: the GI50 is > 100 µM in the test with CCRF-CEM leukemia; 89 µM with SF-268 CNS; > 100 µM in the test with OVCAR-4 ovarian; 60.6 µM in the test with CAKI-1 renal; 57.5 µM with BT-549 breast; 34.4 µM with TK-10 renal. Moreover, the GI50 with M14 melanoma was > 100 µM. The TGI is > 100 µM in the test with CCRF-CEM leukemia; > 100 µM with SF-268 CNS; > 100 µM in the test on OVCAR-4 ovarian; > 100 µM in the test on CAKI-1 renal; > 100 µM in the test on BT-549 breast; 90.8 µM in the test on TK-10 renal. Also, the TGI in the test with M14 melanoma is > 100 µM.

On to `CCCCCCc1nc2nc(Cl)c(Cl)nc2[nH]1`, for which the GI50 in the test on CCRF-CEM leukemia was 5.8 µM; in the test with SF-268 CNS, > 100 µM; with OVCAR-4 ovarian, 6.33 µM; in the test on CAKI-1 renal, 6.37 µM; with BT-549 breast it was 22.5 µM; with TK-10 renal it was 9.9 µM. Moreover, in the test on M14 melanoma, the GI50 was > 100 µM. Further, the TGI with CCRF-CEM leukemia, with SF-268 CNS, in the test on OVCAR-4 ovarian, in the test with CAKI-1 renal, in the test on BT-549 breast and in the test on TK-10 renal was > 100 µM each time. Besides, the TGI in the test on M14 melanoma is > 100 µM.

As for `C=CN(C)S(C)(=O)=O`, the GI50 in the test with CCRF-CEM leukemia, with SF-268 CNS, in the test with OVCAR-4 ovarian, in the test with CAKI-1 renal, in the test with BT-549 breast and in the test on M14 melanoma was > 100 µM each time. The TGI in the test with CCRF-CEM leukemia, in the test with SF-268 CNS, in the test on OVCAR-4 ovarian, in the test on CAKI-1 renal, in the test on BT-549 breast and in the test on M14 melanoma was > 100 µM in each case.

For the compound `C=C(C)[C@@H]1CC[C@]2(CO)CC[C@]3(C)[C@H](CC[C@@H]4[C@@]5(C)CCC(NCCc6ccc(O)cc6)C(C)(C)[C@@H]5CC[C@]43C)[C@@H]12` (some centres undefined), the GI50 is 1.67 µM in the test with CCRF-CEM leukemia; 1.86 µM with SF-268 CNS; 1.7 µM in the test with OVCAR-4 ovarian; 1.54 µM in the test with CAKI-1 renal; 1.75 µM with BT-549 breast; 1.65 µM in the test on TK-10 renal. Moreover, the GI50 in the test with M14 melanoma was 1.6 µM. In addition, the TGI with CCRF-CEM leukemia worked out at 4.14 µM; in the test on SF-268 CNS it was 3.67 µM; in the test on OVCAR-4 ovarian, 3.18 µM; in the test on CAKI-1 renal it was 2.88 µM; in the test with BT-549 breast, 3.27 µM; in the test with TK-10 renal it was 3.13 µM. The same compound displayed a TGI in the test with M14 melanoma of 3.05 µM.

Turning to `CCCCN(CCCC)CCCn1c(=O)c2c3ccccc3n(C)c2n2nnc(-c3ccccc3)c12`, the GI50 in the test with CCRF-CEM leukemia is 4.22 µM; in the test with SF-268 CNS, > 100 µM; with OVCAR-4 ovarian, 17.6 µM; in the test on EKVX NSCLC it was 56.3 µM; with CAKI-1 renal, 49.8 µM; with TK-10 renal, 1.9 µM. Also, the GI50 in the test with M14 melanoma was 21.6 µM. Besides, the TGI in the test on CCRF-CEM leukemia is 92 µM; with SF-268 CNS, > 100 µM; with OVCAR-4 ovarian it was 83.9 µM; in the test on EKVX NSCLC it was > 100 µM; with CAKI-1 renal, > 100 µM; with TK-10 renal, 22.4 µM. Besides, in the test on M14 melanoma, the TGI is > 100 µM.
